US12600709B2, “Nonpeptide somatostatin type 5 receptor agonists and uses thereof” (Crinetics Pharmaceuticals, Inc., priority 2019, dated 2026)
Where two headings read alike, the source gives them in different places.

Legend:
[1] = target: T1, human somatostatin receptor subtype 2 (Homo sapiens, UniProt P30874); test: cAMP assay for SST2R (inhibition of cAMP in CHO-K1 cells); format: cell-based; settings: Table B; inhibition of cAMP via human SST2 receptor; read-out: SST2 potency
T1 construct: expressed in transfected cells
T1 sequence (P30874 whole entry): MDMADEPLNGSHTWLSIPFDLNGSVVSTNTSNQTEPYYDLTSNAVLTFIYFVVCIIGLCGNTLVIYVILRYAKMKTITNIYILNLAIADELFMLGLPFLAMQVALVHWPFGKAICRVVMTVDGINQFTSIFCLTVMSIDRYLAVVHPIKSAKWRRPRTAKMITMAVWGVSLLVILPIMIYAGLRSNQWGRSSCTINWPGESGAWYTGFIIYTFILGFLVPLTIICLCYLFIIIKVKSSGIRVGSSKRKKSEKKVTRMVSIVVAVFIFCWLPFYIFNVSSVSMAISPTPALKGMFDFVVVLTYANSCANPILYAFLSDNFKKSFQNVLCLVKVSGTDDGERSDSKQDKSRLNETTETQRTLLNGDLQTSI
Excerpt: General overview: All five SSTR subtypes are Gi coupled G-protein coupled receptors (GPCRs) that lead to decreases in intracellular cyclic AMP (cAMP) when activated by an agonist. Therefore, measurement of intracellular cAMP levels can be used to assess whether compounds of the invention are agonists of SSTR subtypes (John Kelly, Troy Stevens, W. Joseph Thompson, and Roland Seifert, Current Protocols in Pharmacology, 2005, 2.2.1-2.2). One example of an intracellular cAMP assay is described below.
cAMP Assay Protocol for SST2R:
Four days prior to the assay, 5,000 Chinese hamster ovary cells (CHO-K1, ATCC #CCL-61) stably expressing the human somatostatin receptor subtype 2 are plated in each well of a 96-well tissue culture-treated plate in Ham's F12 growth media (ThermoFisher #10-080-CM) supplemented with 10% donor bovine serum (Gemini Bio-Products #100-506), 100 U/mL penicillin; 100 μg/mL streptomycin; 2 mM L-glutamine (Gemini Bio-Products #400-110) and 0.2 mg/mL hygromycin B (GoldBio #31282-04-9). The cells are cultured at 37° C., 5% CO2 and 95% humidity. On the day of the assay, the media is aspirated and the cells are treated with 50 μL of 1.6 μM NKH477 (Sigma #N3290) plus various dilutions of compounds of the invention in assay buffer [1× Hank's Balanced Salt Solution (ThermoFisher #SH3058802), 0.5 mM HEPES pH 7.4, 0.1% bovine serum albumin, 0.2 mM 3-Isobutyl-1-methylxanthine (IBMX, VWR #200002-790)]. The cells are incubated for 20 minutes at 37° C. […] The cells are treated with 50 μL of lysis buffer (HRTF cAMP kit, Cisbio). The lysate is transferred to 384-well plates and cAMP detection and visualization antibodies are added and incubated for 1-24 hours at room temperature. The time-resolved fluorescent signal is read with a Tecan M1000Pro multiplate reader. The intracellular cAMP concentrations are calculated by regression to a standard curve and are plotted vs. the concentration of the compounds of the invention and the EC50 of the compounds are calculated using standard methods. All data manipulations are in GraphPad Prism v6 or v7.

[2] = target: T2, human somatostatin receptor subtype 5 (Homo sapiens, UniProt P35346); test: cAMP assay for SST5R (inhibition of cAMP in CHO-K1 cells); format: cell-based; settings: for EC50: inhibition of cAMP via human SST5 receptor, read-out: SST5 potency; for Fold selectivity for SST5 vs SST2: class symbols, SST5 receptor over SST2 receptor
T2 construct: expressed in transfected cells
T2 sequence (P35346 whole entry): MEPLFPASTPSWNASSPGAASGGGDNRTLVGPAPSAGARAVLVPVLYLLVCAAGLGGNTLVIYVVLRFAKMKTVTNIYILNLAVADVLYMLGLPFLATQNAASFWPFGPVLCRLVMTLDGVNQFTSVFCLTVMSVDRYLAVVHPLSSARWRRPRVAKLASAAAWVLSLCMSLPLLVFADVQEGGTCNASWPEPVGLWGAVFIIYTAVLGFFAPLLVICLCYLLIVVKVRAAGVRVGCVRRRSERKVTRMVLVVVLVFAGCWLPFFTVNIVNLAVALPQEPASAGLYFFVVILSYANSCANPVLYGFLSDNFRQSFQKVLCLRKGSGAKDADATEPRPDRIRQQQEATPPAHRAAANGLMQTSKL
Summary of the method: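 CHO-K1 cells stably expressing human SSTR5 were treated 20 min at 37 °C with compounds plus 1.6 μM NKH477 in HBSS, 0.5 mM HEPES pH 7.4, 0.1% BSA, 0.2 mM IBMX. Lysate cAMP measured by HTRF against a standard curve; EC50 from cAMP-versus-concentration plots.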

Row | SMILES | EC50 [1] | EC50 ([2]; Table A) | Fold selectivity for SST5 vs SST2 ([2]; Table B) | EC50 ([2]; Table B)
1 | C[C@H](NC(=O)c1cnc(C(F)(F)F)c(-c2cc(F)cc(F)c2)c1N1CC[C@H](N)C1)C(F)(F)F [1-212, 4-[(3S)-3-aminopyrrolidin-1-yl]-5-(3,5-difluorophenyl)-6-(trifluoromethyl)-N-[(2S)-1,1,1-trifluoropropan-2-yl]pyridine-3-carboxamide] | 100 to 1000 nM | < 10 nM | +++ (+++=>500) | < 10 nM
2 | COCCOc1ncc(C(=O)N[C@@H](C)C2CC2)c(N2CC[C@](C)(N)C2)c1-c1cc(F)cc(F)c1 [1-179, 4-[(3S)-3-amino-3-methylpyrrolidin-1-yl]-N-[(1S)-1-cyclopropylethyl]-5-(3,5-difluorophenyl)-6-(2-methoxyethoxy)pyridine-3-carboxamide] | 100 to 1000 nM | < 10 nM | +++ (+++=>500) | < 10 nM
3 | C[C@]1(N)CCN(c2c(C(=O)NCC(F)(F)F)cnc(C#N)c2-c2cc(F)cc(F)c2)C1 [1-92, 4-[(3S)-3-amino-3-methylpyrrolidin-1-yl]-6-cyano-5-(3,5-difluorophenyl)-N-(2,2,2-trifluoroethyl)pyridine-3-carboxamide] | 100 to 1000 nM | < 10 nM | +++ (+++=>500) | < 10 nM
4 | Cc1cc(C)cc(-c2cncc(C(=O)Nc3cc(F)cc(Cl)c3)c2N2CC[C@H](N)C2)c1 [1-3, 4-[(3 S)-3-aminopyrrolidin-1-yl]-N-(3-chloro-5-fluorophenyl)-5-(3,5-dimethylphenyl)pyridine-3-carboxamide] | 100 to 1000 nM | < 10 nM | + (+=10 to 99) | < 10 nM
5 | COc1cc(-c2c(C(F)(F)F)ncc(C(=O)N[C@@H](C)C3CC3)c2N2CC[C@](C)(N)C2)ccn1 [1-208, 4-[(3S)-3-amino-3-methylpyrrolidin-1-yl]-N-[(1S)-1-cyclopropylethyl]-2′-methoxy-2-(trifluoromethyl)-[3,4′-bipyridine]-5-carboxamide] | 100 to 1000 nM | < 10 nM | +++ (+++=>500) | < 10 nM
6 | N[C@H]1CCN(c2c(C(=O)NC3CCC(F)(F)CC3)cnc(C(F)(F)F)c2-c2cc(F)cc(F)c2)C1 [1-214, 4-[(3S)-3-aminopyrrolidin-1-yl]-N-(4,4-difluorocyclohexyl)-5-(3,5-difluorophenyl)-6-(trifluoromethyl)pyridine-3-carboxamide] | > 1000 nM | < 10 nM | +++ (+++=>500) | < 10 nM
7 | N[C@H]1CCN(c2c(C(=O)NC34CC(F)(C3)C4)cnc(C(F)(F)F)c2-c2cc(F)cc(F)c2)C1 [1-216, 4-[(3S)-3-aminopyrrolidin-1-yl]-5-(3,5-difluorophenyl)-N-{3-fluorobicyclo[1.1.1]pentan-1-yl}-6-(trifluoromethyl)pyridine-3-carboxamide] | > 1000 nM | < 10 nM | +++ (+++=>500) | < 10 nM
8 | C[C@]1(N)CCN(c2c(C(=O)NCc3ccon3)cnc(C#N)c2-c2cc(F)cc(Cl)c2)C1 [1-244, 4-[(3S)-3-amino-3-methylpyrrolidin-1-yl]-5-(3-chloro-5-fluorophenyl)-6-cyano-N-[(1,2-oxazol-3-yl)methyl]pyridine-3-carboxamide] | 100 to 1000 nM | < 10 nM | +++ (+++=>500) | < 10 nM
9 | C[C@]1(N)CCN(c2c(C(=O)NC3CCC(F)(F)CC3)cncc2-c2cc(F)c(F)c(F)c2)C1 [1-20, 4-[(3S)-3-amino-3-methylpyrrolidin-1-yl]-N-(4,4-difluorocyclohexyl)-5-(3,4,5-trifluorophenyl)pyridine-3-carboxamide] | 100 to 1000 nM | < 10 nM | +++ (+++=>500) | < 10 nM
10 | CCC(CC)NC(=O)c1cnc(C#N)c(-c2cc(F)cc(F)c2)c1N1CC[C@H](N)C1 [1-72, 4-[(3S)-3-aminopyrrolidin-1-yl]-6-cyano-5-(3,5-difluorophenyl)-N-(pentan-3-yl)pyridine-3-carboxamide] | 100 to 1000 nM | < 10 nM | +++ (+++=>500) | < 10 nM
11 | C[C@]1(N)CCN(c2c(C(=O)NC3CC(F)(F)C3)cnc(C#N)c2-c2cc(F)cc(F)c2)C1 [1-79, 4-[(3S)-3-amino-3-methylpyrrolidin-1-yl]-6-cyano-N-(3,3-difluorocyclobutyl)-5-(3,5-difluorophenyl)pyridine-3-carboxamide] | 100 to 1000 nM | < 10 nM | +++ (+++=>500) | < 10 nM
12 | COc1ncc(C(=O)NC23CC(C2)C3)c(N2CC[C@](C)(N)C2)c1-c1cc(F)cc(F)c1 [1-130, 4-[(3S)-3-amino-3-methylpyrrolidin-1-yl]-N-{bicyclo[1.1.1]pentan-1-yl}-5-(3,5-difluorophenyl)-6-methoxypyridine-3-carboxamide] | 100 to 1000 nM | < 10 nM | +++ (+++=>500) | < 10 nM
13 | CCCCNC(=O)c1cnc(C#N)c(-c2ccnc(OC)c2)c1N1CC[C@](C)(N)C1 [1-271] | > 1000 nM | < 10 nM | +++ (+++=>500) | < 10 nM
14 | Cc1ncc(C(=O)NC2CCC(F)(F)CC2)c(N2CC[C@H](N)C2)c1-c1cc(F)cc(F)c1 [1-233, 4-[(3S)-3-aminopyrrolidin-1-yl]-N-(4,4-difluorocyclohexyl)-5-(3,5-difluorophenyl)-6-methylpyridine-3-carboxamide] | > 1000 nM | < 10 nM | +++ (+++=>500) | < 10 nM
15 | COc1ncc(C(=O)N[C@@H](C)C(F)(F)F)c(N2CC[C@](C)(N)C2)c1-c1ccc2nonc2c1 [1-186, 4-[(3S)-3-amino-3-methylpyrrolidin-1-yl]-5-(2,1,3-benzoxadiazol-5-yl)-6-methoxy-N-[(2S)-1,1,1-trifluoropropan-2-yl]pyridine-3-carboxamide] | 100 to 1000 nM | < 10 nM | +++ (+++=>500) | < 10 nM
16 | COc1ncc(C(=O)N[C@@H](C)C2CC2)c(N2CC[C@](C)(N)C2)c1-c1ccc(F)c(F)c1 [1-262, 4-[(3S)-3-amino-3-methylpyrrolidin-1-yl]-N-[(1S)-1-cyclopropylethyl]-5-(3,4-difluorophenyl)-6-methoxypyridine-3-carboxamide] | 100 to 1000 nM | < 10 nM | +++ (+++=>500) | < 10 nM
17 | COc1ncc(C(=O)N[C@@H](C)C(F)(F)F)c(N2CC[C@](C)(N)C2)c1-c1ccc2ncn(C)c2c1 [1-182, 4-[(3S)-3-amino-3-methylpyrrolidin-1-yl]-6-methoxy-5-(1-methyl-1H-1,3-benzodiazol-6-yl)-N-[(2S)-1,1,1-trifluoropropan-2-yl]pyridine-3-carboxamide] | > 1000 nM | < 10 nM | +++ (+++=>500) | < 10 nM
18 | C[C@]1(N)CCN(c2c(C(=O)NC3CCCCC3)cnc(C#N)c2-c2cc(F)cc(F)c2)C1 [1-93, 4-[(3S)-3-amino-3-methylpyrrolidin-1-yl]-6-cyano-N-cyclohexyl-5-(3,5-difluorophenyl)pyridine-3-carboxamide] | 10 to 100 nM | < 10 nM | +++ (+++=>500) | < 10 nM
19 | Cc1ncc(C(=O)N[C@@H](C)C2CC2)c(N2CC[C@](C)(N)C2)c1-c1cc(F)cc(F)c1 [1-122, 4-[(3S)-3-amino-3-methylpyrrolidin-1-yl]-N-[(1S)-1-cyclopropylethyl]-5-(3,5-difluorophenyl)-6-methylpyridine-3-carboxamide] | 100 to 1000 nM | < 10 nM | +++ (+++=>500) | < 10 nM
20 | COc1ncc(C(=O)N[C@@H](C)C2CC2)c(N2CC[C@](C)(N)C2)c1-c1ccc(Cl)c(F)c1 [1-263, 4-[(3S)-3-amino-3-methylpyrrolidin-1-yl]-5-(4-chloro-3-fluorophenyl)-N-[(1S)-1-cyclopropylethyl]-6-methoxypyridine-3-carboxamide] | > 1000 nM | < 10 nM | +++ (+++=>500) | < 10 nM
